# Experiment: Fatty acid composition of pig tissues (ham, loin, belly, skin) after feeding SDA ethyl ester diets, 35 day study
# Assay type: in vivo, pigs
# Conditions: 35 days
# Procedure: A 35 day study was conducted to determine whether pigs fed a diet containing SDA could enhance tissues with improved fatty acid profiles including increased levels of SDA, EPA, and DHA.
# Four test diets (Treatment 2, 3, 4, and 5) with SDA ethyl ester substituted for corn oil to provide 0.2, 0.4, 0.6 and 0.8% (w/w SDA active ingredient, as-is basis) were fed ad libitum to one pen of four pigs throughout the 35-day test period Table 4). All diets were fed in meal form. Treatment 6 was fed the same diet as Treatment 5, but for a duration of only 21 days.
# All pigs were individually weighed at initiation of the acclimation and test period, and immediately prior to slaughter. Feed consumption per pen was recorded. Upon completion of the feeding period, pigs were slaughtered for tissue collection and carcass evaluation. Pigs were slaughtered using standard industry practices (electrical stunning, exsanguinations, scalding, dehairing and evisceration). Live weights prior to slaughter and hot carcass weights were recorded. The left side of each carcass was fabricated and samples were obtained from the loin (longissimus muscle), ham (semimembranosus muscle) and belly (a section from the center of the belly) for sensory evaluation, fatty acid, and proximate analysis. Prior to removing the sample for sensory and fatty and proximate analysis from the belly the firmness of the belly was evaluated using a flop test. At 24 hr postmortem fat thickness (10th rib), loin eye area (10th rib), visual color, firmness and marbling, Minolta color (L*a*b*), pH, and drip loss were measured.
# In order to evaluate the fatty acid composition of pig tissues (loin, ham, skin, and belly), samples were stored at −80° C. until evaluation. After thawing, ˜22 g of fresh pig tissue was chopped into small pieces and thoroughly mixed before 10 g was sub sampled and lyophilized. Lyophilized samples were ground in 30 ml Sarstedt tubes with two ball bearings using a Mega Grinder. Ground samples (loin and ham: 50 mg; skin: 100 mg; belly: 150 mg; diet: 500 mg) were directly methylated with sulfuric acid in methanol (loin and ham: 1 mL; skin: 3 mL; belly: 10 mL; diet: 1.5 mL) sealed in the presence of butylated hydroxytoluene (50 mg BHT in 100 ml reagent) in reflux conditions of 90° C. Resultant fatty acid methyl esters (FAME's) were separated by capillary gas chromatography (GC) and detected by flame ionization detector (FID). The column used was a Supelco Omegawax 250 capillary column with dimensions of 30 m×0.25 mm×0.25 μm film thickness. The run time was 32 minutes. Peaks were identified based on their relative retention time compared to a FAME reference mixture. Quantification was achieved by using an internal standard (c15:0 triacylglyceride (TAG) for pig tissue samples and c17:0 TAG for diet samples). Results are reported as FA g/100 g fat with theoretical response correction.
# For Table 6 below, each value represents g/100 g total fatty acids a mean of 4 samples (1 sample from each of 4 pigs) per treatment.
smiles,measurement,setting,value
"CC/C=C\C/C=C\C/C=C\C/C=C\CCCCC(=O)O [SDA, stearidonic acid]","24:1 n-9, ham",0.4% SDA feed,0.05 g FA per 100 g fat
same,"Total PUFA, ham",0.4% SDA feed,13.34 g FA per 100 g fat
same,"Total monoenes, ham",0.4% SDA feed,48.71 g FA per 100 g fat
same,"Total n-3, ham",0.4% SDA feed,1.23 g FA per 100 g fat
same,"Total n-6, ham",0.4% SDA feed,12.11 g FA per 100 g fat
same,"Total saturates, ham",0.4% SDA feed,33.55 g FA per 100 g fat
same,"n-6/n-3, ham",0.4% SDA feed,9.85
same,"12:0, ham",0.6% SDA feed,0.06 g FA per 100 g fat
same,"14:0, ham",0.6% SDA feed,1.05 g FA per 100 g fat
same,"16:0, ham",0.6% SDA feed,21.49 g FA per 100 g fat
same,"16:1 n-7, ham",0.6% SDA feed,3.03 g FA per 100 g fat
same,"16:1 n-9, ham",0.6% SDA feed,0.26 g FA per 100 g fat
same,"18:0, ham",0.6% SDA feed,11.47 g FA per 100 g fat
same,"18:1 n-7, ham",0.6% SDA feed,4.08 g FA per 100 g fat
same,"18:1 n-9, ham",0.6% SDA feed,37.64 g FA per 100 g fat
same,"18:2 n-6 (LA), ham",0.6% SDA feed,9.92 g FA per 100 g fat
same,"18:3 n-3 (ALA), ham",0.6% SDA feed,0.22 g FA per 100 g fat
same,"18:3 n-6 (GLA), ham",0.6% SDA feed,0.14 g FA per 100 g fat
same,"18:4 n-3 (SDA), ham",0.6% SDA feed,0.16 g FA per 100 g fat
same,"20:0, ham",0.6% SDA feed,0.16 g FA per 100 g fat
same,"20:1 n-7, ham",0.6% SDA feed,0.04 g FA per 100 g fat
same,"20:1 n-9, ham",0.6% SDA feed,0.59 g FA per 100 g fat
same,"20:1 n-11, ham",0.6% SDA feed,0.03 g FA per 100 g fat
same,"20:2 n-6, ham",0.6% SDA feed,0.28 g FA per 100 g fat
same,"20:3 n-3, ham",0.6% SDA feed,0.04 g FA per 100 g fat
same,"20:3 n-6 (DGLA), ham",0.6% SDA feed,0.43 g FA per 100 g fat
same,"20:4 n-3 (ETA), ham",0.6% SDA feed,0.26 g FA per 100 g fat
same,"20:4 n-6 (AA), ham",0.6% SDA feed,2.60 g FA per 100 g fat
same,"20:5 n-3 (EPA), ham",0.6% SDA feed,0.54 g FA per 100 g fat
same,"22:0, ham",0.6% SDA feed,0.07 g FA per 100 g fat
same,"22:1 n-9, ham",0.6% SDA feed,0.00 g FA per 100 g fat
same,"22:1 n-11, ham",0.6% SDA feed,0.00 g FA per 100 g fat
same,"22:1 n-13, ham",0.6% SDA feed,0.00 g FA per 100 g fat
same,"22:2 n-7, ham",0.6% SDA feed,0.00 g FA per 100 g fat
same,"22:3 n-6, ham",0.6% SDA feed,0.24 g FA per 100 g fat
same,"22:5 n-3 (DPA), ham",0.6% SDA feed,0.67 g FA per 100 g fat
same,"22:6 n-3 (DHA), ham",0.6% SDA feed,0.10 g FA per 100 g fat
same,"24:1 n-9, ham",0.6% SDA feed,0.06 g FA per 100 g fat
same,"Total PUFA, ham",0.6% SDA feed,15.59 g FA per 100 g fat
same,"Total monoenes, ham",0.6% SDA feed,45.72 g FA per 100 g fat
same,"Total n-3, ham",0.6% SDA feed,1.99 g FA per 100 g fat
same,"Total n-6, ham",0.6% SDA feed,13.60 g FA per 100 g fat
same,"Total saturates, ham",0.6% SDA feed,34.30 g FA per 100 g fat
same,"n-6/n-3, ham",0.6% SDA feed,6.83
same,"12:0, ham",0.8% SDA feed,0.05 g FA per 100 g fat
same,"14:0, ham",0.8% SDA feed,0.96 g FA per 100 g fat
same,"16:0, ham",0.8% SDA feed,20.70 g FA per 100 g fat
same,"16:1 n-7, ham",0.8% SDA feed,2.90 g FA per 100 g fat
same,"16:1 n-9, ham",0.8% SDA feed,0.53 g FA per 100 g fat
same,"18:0, ham",0.8% SDA feed,11.25 g FA per 100 g fat
same,"18:1 n-7, ham",0.8% SDA feed,4.27 g FA per 100 g fat
same,"18:1 n-9, ham",0.8% SDA feed,35.19 g FA per 100 g fat
same,"18:2 n-6 (LA), ham",0.8% SDA feed,11.90 g FA per 100 g fat
same,"18:3 n-3 (ALA), ham",0.8% SDA feed,0.25 g FA per 100 g fat
same,"18:3 n-6 (GLA), ham",0.8% SDA feed,0.21 g FA per 100 g fat
same,"18:4 n-3 (SDA), ham",0.8% SDA feed,0.24 g FA per 100 g fat
same,"20:0, ham",0.8% SDA feed,0.13 g FA per 100 g fat
same,"20:1 n-7, ham",0.8% SDA feed,0.04 g FA per 100 g fat
same,"20:1 n-9, ham",0.8% SDA feed,0.52 g FA per 100 g fat
same,"20:1 n-11, ham",0.8% SDA feed,0.03 g FA per 100 g fat
same,"20:2 n-6, ham",0.8% SDA feed,0.27 g FA per 100 g fat
same,"20:3 n-3, ham",0.8% SDA feed,0.03 g FA per 100 g fat
same,"20:3 n-6 (DGLA), ham",0.8% SDA feed,0.50 g FA per 100 g fat
same,"20:4 n-3 (ETA), ham",0.8% SDA feed,0.29 g FA per 100 g fat
same,"20:4 n-6 (AA), ham",0.8% SDA feed,3.12 g FA per 100 g fat
same,"20:5 n-3 (EPA), ham",0.8% SDA feed,0.87 g FA per 100 g fat
same,"22:0, ham",0.8% SDA feed,0.10 g FA per 100 g fat
same,"22:1 n-9, ham",0.8% SDA feed,0.00 g FA per 100 g fat
same,"22:1 n-11, ham",0.8% SDA feed,0.00 g FA per 100 g fat
same,"22:1 n-13, ham",0.8% SDA feed,0.00 g FA per 100 g fat
same,"22:2 n-7, ham",0.8% SDA feed,0.00 g FA per 100 g fat
